The target in the test is T1, SIRT1 (Homo sapiens, UniProt Q96EB6).
T1 sequence (Q96EB6 1-747): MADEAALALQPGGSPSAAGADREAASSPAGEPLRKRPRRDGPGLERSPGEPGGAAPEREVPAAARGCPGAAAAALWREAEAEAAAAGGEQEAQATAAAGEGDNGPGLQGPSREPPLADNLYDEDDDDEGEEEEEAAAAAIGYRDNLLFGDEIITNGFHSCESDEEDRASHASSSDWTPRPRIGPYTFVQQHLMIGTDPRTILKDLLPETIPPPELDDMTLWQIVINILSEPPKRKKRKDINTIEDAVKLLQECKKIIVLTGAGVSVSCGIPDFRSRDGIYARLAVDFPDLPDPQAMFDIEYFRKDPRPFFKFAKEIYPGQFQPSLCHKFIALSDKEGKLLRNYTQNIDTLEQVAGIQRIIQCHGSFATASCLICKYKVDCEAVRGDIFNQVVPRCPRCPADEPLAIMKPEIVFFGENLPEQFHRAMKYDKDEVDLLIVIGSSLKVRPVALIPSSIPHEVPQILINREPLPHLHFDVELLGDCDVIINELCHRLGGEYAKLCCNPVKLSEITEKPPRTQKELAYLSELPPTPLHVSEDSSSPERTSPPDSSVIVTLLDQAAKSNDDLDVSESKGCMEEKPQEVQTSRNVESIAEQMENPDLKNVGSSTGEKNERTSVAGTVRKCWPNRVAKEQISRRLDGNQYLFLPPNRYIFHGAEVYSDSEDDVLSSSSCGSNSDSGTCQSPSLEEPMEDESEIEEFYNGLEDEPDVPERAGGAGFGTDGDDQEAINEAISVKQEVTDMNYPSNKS
The test can be described thus: Trp mass spectrometry assay of SIRT1 activation (Ac-R-H-K-K(Ac)-W-NH2 peptide). It counts as biochemical. The note with it: Trp peptide 0.5 μM, 120 μM βNAD+, 10 nM SIRT1, 25 min at 25° C.; for Emax: 25 min, read-out: TRP MAX RESP (percent maximum fold activation); for Emax / TRP MAX RESP (percent maximum fold activation): relative to control (100%). The gist of the method:
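Mass spectrometry read-out (OAADPR formed, or deacetylated Trp peptide) after a 25 min NAD-dependent deacetylation by E. coli-expressed His-SIRT1, stopped with formic acid.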

Bounds are passed on as bounds.

For the molecule `Cc1ccc2c(NC(=O)N3c4nc(C(=O)N[C@H](C)C(F)(F)F)ccc4N4CC[C@H]3C4)n[nH]c2n1` [Example 76, (4S)—N5-(6-methyl-1H-pyrazolo[3,4-b]pyridin-3-yl)-N7-((R)-1,1,1-trifluoropropan-2-yl)-3,4-dihydro-1,4-methanopyrido[2,3-b][1,4]diazepine-5,7(2H)-dicarboxamide], the Emax is over 150% and the “TRP Activity (EC1.5, concentration of test compound that results in 150% activation of SIRT1)” value is listed as “A (EC1.5<1 μM)”. Consider `C=CCNC(=O)c1ccc2c(n1)N(C(=O)Nc1cc(OC[C@H](O)CO)ccn1)[C@H]1CCN2C1` [Example 315, (4S)—N7-allyl-N5-(4-((R)-2,3-dihydroxypropoxy)pyridin-2-yl)-3,4-dihydro-1,4-methanopyrido[2,3-b][1,4]diazepine-5,7(2H)-dicarboxamide], for which the “TRP Activity (EC1.5, concentration of test compound that results in 150% activation of SIRT1)” value is listed as “B (EC1.5 1-25 μM)” and the “TRP MAX RESP (percent maximum fold activation)” value is reported as “B (Fold Activation<150%)”. In the case of `N#Cc1ccc(NC(=O)N2c3nc(C(=O)NCC(F)(F)F)ccc3N3CC[C@H]2C3)nc1` [Example 158, (4S)—N5-(5-cyanopyridin-2-yl)-N7-(2,2,2-trifluoroethyl)-3,4-dihydro-1,4-methanopyrido[2,3-b][1,4]diazepine-5,7(2H)-dicarboxamide], the Emax was over 150% and the “TRP Activity (EC1.5, concentration of test compound that results in 150% activation of SIRT1)” value is reported as “A (EC1.5<1 μM)”. Take `COCC(NC(=O)c1ccc2c(n1)N(C(=O)Nc1ccccn1)[C@H]1CCN2C1)C1CC1` (single isomer, unassigned) [Example 60]: the “TRP Activity (EC1.5, concentration of test compound that results in 150% activation of SIRT1)” value is “A (EC1.5<1 μM)”. In the case of `Cc1cc(C(=O)N[C@H](C)C(F)(F)F)nc2c1N1CC[C@@H](C1)N2C(=O)Nc1ccc(OC[C@@H](O)CO)cn1` [Example 290, (4S)—N5-(5-((S)-2,3-dihydroxypropoxy)pyridin-2-yl)-9-methyl-N7-((R)-1,1,1-trifluoropropan-2-yl)-3,4-dihydro-1,4-methanopyrido[2,3-b][1,4]diazepine-5,7(2H)-dicarboxamide], the Emax is over 150% and the “TRP Activity (EC1.5, concentration of test compound that results in 150% activation of SIRT1)” value was “A (EC1.5<1 μM)”. Taken in the same sequence, the figures for `O=C(NCc1cccc(F)c1)c1ccc2c(n1)N(C(=O)Nc1ccccn1)[C@H]1CCN2C1` [Example 236, (4S)—N7-(3-fluorobenzyl)-N5-(pyridin-2-yl)-3,4-dihydro-1,4-methanopyrido[2,3-b][1,4]diazepine-5,7(2H)-dicarboxamide] were over 150% and “A (EC1.5<1 μM)”.

As to `Cc1ncc(-c2ccnc(NC(=O)N3c4nc(C(=O)N[C@H](CO)C(F)(F)F)ccc4N4CC[C@H]3C4)c2)o1` (single isomer, unassigned) [Example 125], the Emax is over 150% and the “TRP Activity (EC1.5, concentration of test compound that results in 150% activation of SIRT1)” value was “A (EC1.5<1 μM)”. As to `C[C@H](NC(=O)c1ccc2c(n1)N(C(=O)Nc1ccccn1)[C@H]1CCN2C1)C(F)(F)F` [Example 207, (4S)—N5-(pyridin-2-yl)-N7-((S)-1,1,1-trifluoropropan-2-yl)-3,4-dihydro-1,4-methanopyrido[2,3-b][1,4]diazepine-5,7(2H)-dicarboxamide], the Emax was over 150% and the “TRP Activity (EC1.5, concentration of test compound that results in 150% activation of SIRT1)” value was “B (EC1.5 1-25 μM)”.

With `C[C@@H](NC(=O)c1ccc2c(n1)N(C(=O)Nc1nccc(OC[C@H](O)CO)n1)[C@H]1CCN2C1)C(F)(F)F` [Example 244, (4S)—N5-(4-((R)-2,3-dihydroxypropoxy)pyrimidin-2-yl)-N7-((R)-1,1,1-trifluoropropan-2-yl)-3,4-dihydro-1,4-methanopyrido[2,3-b][1,4]diazepine-5,7(2H)-dicarboxamide], the Emax was over 150% and the “TRP Activity (EC1.5, concentration of test compound that results in 150% activation of SIRT1)” value is reported as “A (EC1.5<1 μM)”.

With `O=C(NC1CC1(F)F)c1ccc2c(n1)N(C(=O)Nc1cc(OC[C@H](O)CO)ccn1)[C@H]1CCN2C1` (single isomer, unassigned) [Example 306], the “TRP Activity (EC1.5, concentration of test compound that results in 150% activation of SIRT1)” value is given as “B (EC1.5 1-25 μM)” and the “TRP MAX RESP (percent maximum fold activation)” value was “B (Fold Activation<150%)”.

Turning to `C[C@@H](NC(=O)c1ccc2c(n1)N(C(=O)Nc1cc(-c3cnco3)ccn1)[C@H]1CCN2C1)C(F)(F)F` [Example 134, (4S)—N5-(4-(oxazol-5-yl)pyridin-2-yl)-N7-((R)-1,1,1-trifluoropropan-2-yl)-3,4-dihydro-1,4-methanopyrido[2,3-b][1,4]diazepine-5,7(2H)-dicarboxamide], the Emax was over 150% and the “TRP Activity (EC1.5, concentration of test compound that results in 150% activation of SIRT1)” value is “A (EC1.5<1 μM)”. For `NC(=O)c1ccc(NC(=O)N2c3nc(C(=O)NCC(F)(F)F)ccc3N3CC[C@H]2C3)nc1` [Example 143, (4S)—N5-(5-carbamoylpyridin-2-yl)-N7-(2,2,2-trifluoroethyl)-3,4-dihydro-1,4-methanopyrido[2,3-b][1,4]diazepine-5,7(2H)-dicarboxamide], the Emax was over 150% and the “TRP Activity (EC1.5, concentration of test compound that results in 150% activation of SIRT1)” value is reported as “A (EC1.5<1 μM)”.

Take `Cc1cccnc1NC(=O)N1c2nc(C(=O)N[C@H](C)C(F)(F)F)ccc2N2CC[C@H]1C2` [Example 247, (4S)—N5-(3-methylpyridin-2-yl)-N7-((R)-1,1,1-trifluoropropan-2-yl)-3,4-dihydro-1,4-methanopyrido[2,3-b][1,4]diazepine-5,7(2H)-dicarboxamide]: the Emax was over 150% and the “TRP Activity (EC1.5, concentration of test compound that results in 150% activation of SIRT1)” value is on record as “B (EC1.5 1-25 μM)”. Taken in the same sequence, the figures for `CC(C)(CO)CNC(=O)c1ccc2c(n1)N(C(=O)Nc1ccccn1)[C@H]1CCN2C1` [Example 41, (4S)—N7-(3-hydroxy-2,2-dimethylpropyl)-N5-(pyridin-2-yl)-3,4-dihydro-1,4-methanopyrido[2,3-b][1,4]diazepine-5,7(2H)-dicarboxamide] were over 150% and “B (EC1.5 1-25 μM)”. As to `O=C(NCCO)c1ccnc(NC(=O)N2c3nc(C(=O)NCC(F)(F)F)ccc3N3CC[C@H]2C3)c1` [Example 180, (4S)—N5-(4-((2-hydroxyethyl)carbamoyl)pyridin-2-yl)-N7-(2,2,2-trifluoroethyl)-3,4-dihydro-1,4-methanopyrido[2,3-b][1,4]diazepine-5,7(2H)-dicarboxamide], the Emax was over 150% and the “TRP Activity (EC1.5, concentration of test compound that results in 150% activation of SIRT1)” value is “A (EC1.5<1 μM)”. The like results for `CC[C@@H](C)NC(=O)c1ccc2c(n1)N(C(=O)Nc1ccccn1)[C@H]1CCN2C1` [Example 33, (4S)—N7-((R)-sec-butyl)-N5-(pyridin-2-yl)-3,4-dihydro-1,4-methanopyrido[2,3-b][1,4]diazepine-5,7(2H)-dicarboxamide] were, in that order, over 150% and “A (EC1.5<1 μM)”. Take `CC(C)(CO)NC(=O)c1ccc2c(n1)N(C(=O)Nc1ccccn1)[C@H]1CCN2C1` [Example 200, (4S)—N7-(1-hydroxy-2-methylpropan-2-yl)-N5-(pyridin-2-yl)-3,4-dihydro-1,4-methanopyrido[2,3-b][1,4]diazepine-5,7(2H)-dicarboxamide]: the Emax is over 150% and the “TRP Activity (EC1.5, concentration of test compound that results in 150% activation of SIRT1)” value is on record as “B (EC1.5 1-25 μM)”.

On to `Cc1ccc2c(NC(=O)N3c4nc(C(=O)NC5CC5(F)F)ccc4N4CC[C@H]3C4)n[nH]c2n1` (single isomer, unassigned) [Example 221], for which the “TRP Activity (EC1.5, concentration of test compound that results in 150% activation of SIRT1)” value is “B (EC1.5 1-25 μM)” and the “TRP MAX RESP (percent maximum fold activation)” value was “A (Fold activation≥150%)”. On to `NC(=O)c1ccc2c(n1)N(C(=O)Nc1ccccn1)[C@H]1CCN2C1` [Example 257, (4S)—N5-(pyridin-2-yl)-3,4-dihydro-1,4-methanopyrido[2,3-b][1,4]diazepine-5,7(2H)-dicarboxamide], for which the Emax is over 150% and the “TRP Activity (EC1.5, concentration of test compound that results in 150% activation of SIRT1)” value is given as “B (EC1.5 1-25 μM)”.

In the case of `C[C@@H](NC(=O)c1ccc2c(n1)N(C(=O)Nc1cc(OCCN)ccn1)[C@H]1CCN2C1)C(F)(F)F` [Example 186, (4S)—N5-(4-(2-aminoethoxy)pyridin-2-yl)-N7-((R)-1,1,1-trifluoropropan-2-yl)-3,4-dihydro-1,4-methanopyrido[2,3-b][1,4]diazepine-5,7(2H)-dicarboxamide], the Emax was over 150% and the “TRP Activity (EC1.5, concentration of test compound that results in 150% activation of SIRT1)” value is recorded as “B (EC1.5 1-25 μM)”.

For the origin of these results see patent publication US10072011B2, “Substituted bridged urea analogs as sirtuin modulators” (GlaxoSmithKline Intellectual Property (No.2) Limited, priority 2014, dated 2018).
